Test systems include A498; HCT-116; HCT-15; HOP-62; MDA-MB-435; NCI-H226; NCI-H460; OVCAR-3; OVCAR-4; OVCAR-5; SF-295; SK-OV-3; SN12C; SW-620; T47D; TK-10; U-251; UACC-257; UACC-62.
Holding throughout (experiment): growth of human tumour cells (NCI), 48 h

The structures appear in SMILES notation.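 Step 1: Grow cells in 96-well plates. Step 2: Expose to compound for 48 hours at 5 concentrations. Step 3: Interpolate endpoints linearly; if unreached, use highest concentration. GI50 = concentration required for 50% inhibition of growth.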 Activity calls are given as the source filed them. Cut-off read from the data, not from the text of the source: active = GI50 up to about 1.1 µM and inactive = higher.

The results in this text go back to ChEMBL document CHEMBL1201862, “PubChem BioAssay data set” (2004).

In the case of `CC(C)[C@H](NC(=O)[C@H](N)Cc1ccc(N(CCCl)CCCl)cc1)C(=O)O`, the GI50 in the test on A498 was > 100 µM (inactive); in the test on HCT-116, > 100 µM (inactive); in the test on HCT-15, > 100 µM; in the test with HOP-62 it was > 100 µM (inactive); in the test on MDA-MB-435, > 100 µM (inactive); in the test with NCI-H226, > 100 µM (inactive). Moreover, the GI50 in the test with NCI-H460, in the test with OVCAR-3, in the test with OVCAR-4, in the test with OVCAR-5, in the test on SF-295 and with SK-OV-3 was > 100 µM (inactive) in each case. Also, the GI50 in the test on SN12C, in the test with SW-620, in the test on T47D, with TK-10, in the test with U-251 and in the test on UACC-257 was > 100 µM (inactive) in each case. For the same compound, in the test with UACC-62, the GI50 was > 100 µM (inactive).

In the case of `C=CCOC(=O)/C(=C\c1ccc(OC)c(OC)c1)c1ccc(OC)c(OC)c1`, the GI50 in the test on A498 was 78.7 µM (inactive); with HCT-116 it was 25.2 µM (inactive); in the test on HCT-15, > 100 µM; with HOP-62 it was > 100 µM (inactive); in the test on MDA-MB-435 it was 56 µM (inactive); in the test on NCI-H226, > 100 µM (inactive). Besides, the GI50 is 25.4 µM (inactive) in the test on NCI-H460; > 100 µM (inactive) with OVCAR-3; > 10 µM (inactive) in the test on OVCAR-4; > 100 µM (inactive) in the test on OVCAR-5; 52.1 µM (inactive) in the test with SF-295; > 100 µM (inactive) with SK-OV-3. The GI50 in the test with SN12C was > 100 µM (inactive); in the test on SW-620, 54.1 µM (inactive); in the test with T47D, 29.8 µM (inactive); with TK-10, 61.2 µM (inactive); with U-251, 52.4 µM (inactive); in the test with UACC-257, 57.5 µM (inactive). For the same compound, in the test with UACC-62, the GI50 was 38.5 µM (inactive).

As to `O=[N+]([O-])/C=C/c1cc2ccccc2[nH]1`, the GI50 is 19.3 µM (inactive) in the test with A498; 4.31 µM (inactive) in the test with HCT-116; 21.5 µM with HCT-15; 16.5 µM (inactive) in the test on HOP-62; 2.59 µM (inactive) in the test with MDA-MB-435; 19.1 µM (inactive) in the test on NCI-H226. The GI50 in the test on NCI-H460 is 14.6 µM (inactive); in the test on OVCAR-3 it was 14.8 µM (inactive); with OVCAR-4 it was 14.1 µM (inactive); in the test with OVCAR-5 it was 19.5 µM (inactive); in the test on SF-295, 19.5 µM (inactive); in the test on SK-OV-3, 16.9 µM (inactive). Also, the GI50 was 17.7 µM (inactive) with SN12C; 8.83 µM (inactive) with SW-620; 16.2 µM (inactive) in the test with T47D; 17.5 µM (inactive) with TK-10; 12.4 µM (inactive) with U-251; 15.4 µM (inactive) with UACC-257. Also, the GI50 in the test with UACC-62 was 18.2 µM (inactive).

For `C[C@@H]1C(=O)C[C@H]2C(C)(C)CCC[C@]2(C)[C@@]1(O)CCc1ccoc1`, the GI50 in the test on A498 is > 100 µM (inactive); in the test with HCT-116, > 100 µM (inactive); with HCT-15, > 100 µM; with HOP-62 it was > 100 µM (inactive); in the test on MDA-MB-435, > 100 µM (inactive); with NCI-H226 it was 13.4 µM (inactive). Moreover, the GI50 in the test with NCI-H460, with OVCAR-3, with OVCAR-4, in the test on OVCAR-5, with SF-295 and in the test with SK-OV-3 was > 100 µM (inactive) throughout. Further, the GI50 in the test with SN12C was > 100 µM (inactive); in the test with SW-620, > 100 µM (inactive); in the test with T47D it was 82 µM (inactive); in the test with TK-10, > 100 µM (inactive); in the test on U-251, > 100 µM (inactive); with UACC-257 it was > 100 µM (inactive). Besides, in the test with UACC-62, the GI50 is > 100 µM (inactive).

In the case of `O=C(/C=C/c1ccsc1)c1cccs1`, the GI50 with A498 was > 100 µM (inactive); with HCT-116, 15.6 µM (inactive); in the test with HCT-15, 18.7 µM; in the test with HOP-62, > 100 µM (inactive); with MDA-MB-435, > 10 µM (inactive); in the test with NCI-H226, > 100 µM (inactive). The GI50 with NCI-H460 was 41.7 µM (inactive); with OVCAR-3 it was 22.1 µM (inactive); in the test with OVCAR-4, 44.8 µM (inactive); in the test on OVCAR-5 it was 44.1 µM (inactive); in the test on SF-295, 64.7 µM (inactive); in the test on SK-OV-3, 39.1 µM (inactive). Also, the GI50 in the test on SN12C was 19.5 µM (inactive); in the test on SW-620, 17.3 µM (inactive); in the test on T47D it was 20 µM (inactive); in the test on TK-10, 23.1 µM (inactive); in the test on U-251 it was 20.5 µM (inactive); in the test with UACC-257, 66.8 µM (inactive). Also, in the test on UACC-62, the GI50 was 25.4 µM (inactive).

`Cc1cc2c(cc1Cl)Sc1nnc(C)n1S2(=O)=O`: the GI50 is 14.8 µM (inactive) in the test with A498; 16.1 µM (inactive) with HCT-116; 11.2 µM in the test on HCT-15; 20 µM (inactive) with HOP-62; 13 µM (inactive) in the test on MDA-MB-435; 30.2 µM (inactive) in the test with NCI-H226. For the same compound, the GI50 is 23.7 µM (inactive) with NCI-H460; 12.6 µM (inactive) with OVCAR-3; 12.5 µM (inactive) in the test with OVCAR-4; 29.2 µM (inactive) in the test on OVCAR-5; 15.7 µM (inactive) in the test on SF-295; 26.6 µM (inactive) with SK-OV-3. In addition, the GI50 was 14.8 µM (inactive) in the test on SN12C; 15.4 µM (inactive) in the test on SW-620; 8.18 µM (inactive) in the test on T47D; 15.6 µM (inactive) in the test with TK-10; 15.1 µM (inactive) with U-251; 13.9 µM (inactive) with UACC-257. Moreover, the GI50 with UACC-62 is 15 µM (inactive).

As for `CC(C)N(CCCNc1c2ccccc2nc2cccc([N+](=O)[O-])c12)C(C)C`, the GI50 in the test with A498 was 0.0196 µM (active); with HCT-116 it was < 0.01 µM (active); in the test with HCT-15, 0.0191 µM; in the test on HOP-62 it was < 0.0191 µM (active); in the test on MDA-MB-435, < 0.0125 µM (active); with NCI-H226 it was 0.0481 µM (active). For the same compound, the GI50 in the test on NCI-H460 was < 0.01 µM (active); with OVCAR-3, < 0.023 µM (active); with OVCAR-4, 0.0246 µM (active); in the test with OVCAR-5, < 0.0191 µM (active); in the test on SF-295, < 0.0152 µM (active); with SK-OV-3, < 0.0326 µM (active). The GI50 is < 0.0165 µM (active) in the test with SN12C; < 0.01 µM (active) in the test on SW-620; < 0.0269 µM (active) with T47D; < 0.0205 µM (active) in the test with TK-10; < 0.0163 µM (active) with U-251; < 0.0231 µM (active) with UACC-257. Besides, the GI50 in the test on UACC-62 was 0.0358 µM (active).

Turning to `O=[N+]([O-])c1ccc(O)c(/C=N/c2nc(-c3ccccc3)cs2)c1`, the GI50 with A498 was > 93.5 µM (inactive); with HCT-116 it was 26.7 µM (inactive); in the test with HCT-15 it was 29.1 µM; with HOP-62 it was 26.7 µM (inactive); in the test on MDA-MB-435, 35.5 µM (inactive); in the test with NCI-H226 it was 24.7 µM (inactive). Further, the GI50 in the test on NCI-H460 was 38.1 µM (inactive); with OVCAR-3 it was 35.2 µM (inactive); in the test on OVCAR-4, 58.3 µM (inactive); in the test with OVCAR-5, 31.6 µM (inactive); in the test with SF-295 it was 33.1 µM (inactive); in the test with SK-OV-3 it was 32.5 µM (inactive). Moreover, the GI50 is 34.8 µM (inactive) with SN12C; 37.6 µM (inactive) in the test with SW-620; 24.3 µM (inactive) in the test on T47D; 42.5 µM (inactive) in the test on TK-10; 32.2 µM (inactive) in the test with U-251; 45.9 µM (inactive) in the test with UACC-257. Also, the GI50 in the test on UACC-62 was 4.67 µM (inactive).

Consider `c1ccc(-c2nc3ccccc3n3nnnc23)cc1`, for which the GI50 in the test on A498 is > 100 µM (inactive); with HCT-116, > 100 µM (inactive); with HCT-15, > 100 µM; with HOP-62, 63.5 µM (inactive); with MDA-MB-435, > 100 µM (inactive); in the test on NCI-H226, > 100 µM (inactive). The GI50 with NCI-H460, in the test on OVCAR-3, in the test on OVCAR-4, with OVCAR-5, in the test with SK-OV-3 and in the test with SN12C was > 100 µM (inactive) each time. Moreover, the GI50 in the test with SW-620 was > 100 µM (inactive); in the test on T47D, 20.2 µM (inactive); with TK-10, > 100 µM (inactive); in the test on U-251, > 100 µM (inactive); in the test on UACC-257, > 100 µM (inactive); with UACC-62 it was > 100 µM (inactive).

Turning to `COc1ccc2nc3cccc([N+](=O)[O-])c3c(NCCN(C)C)c2c1`, the GI50 in the test on A498 is 0.17 µM (active); with HCT-116, 0.0251 µM (active); in the test on HCT-15, 0.0716 µM; in the test on HOP-62 it was 0.119 µM (active); in the test with MDA-MB-435, 0.0826 µM (active); with NCI-H226, 0.207 µM (active). The GI50 is 0.0165 µM (active) in the test with NCI-H460; 0.127 µM (active) in the test on OVCAR-3; 0.116 µM (active) in the test with OVCAR-4; 0.173 µM (active) in the test on OVCAR-5; 0.233 µM (active) in the test on SF-295; 0.255 µM (active) in the test on SK-OV-3. Besides, the GI50 in the test on SN12C is 0.11 µM (active); in the test on SW-620, 0.14 µM (active); in the test on T47D, 0.146 µM (active); with TK-10, 0.263 µM (active); with U-251, 0.149 µM (active); in the test with UACC-257 it was 0.191 µM (active).

For `CCc1cc2c(cc1C(=O)CCC(=O)O)CC1(C2)Cc2cc(CC)c(C(=O)CCC(=O)O)cc2C1`, the GI50 is > 100 µM (inactive) in the test on A498; > 100 µM (inactive) in the test with HCT-116; > 100 µM in the test on HCT-15; > 100 µM (inactive) in the test with HOP-62; > 100 µM (inactive) with MDA-MB-435; > 100 µM (inactive) in the test on NCI-H226. The GI50 with NCI-H460, in the test on OVCAR-3, with OVCAR-4, in the test on OVCAR-5, in the test with SF-295 and in the test with SK-OV-3 was > 100 µM (inactive) throughout. Also, the GI50 in the test on SN12C, in the test on SW-620, with T47D, in the test with TK-10, in the test with U-251 and in the test on UACC-257 was > 100 µM (inactive) each time.
